{
  "source": "patent US5858398A",
  "about": "“Microparticular pharmaceutical compositions” (Isomed Inc., priority 1996, dated 1999)",
  "origin": "cited, not measured here",
  "test_system": "intestinal membranes",
  "data": [
    {"substance": "sn-1-acyl-3-glycerophosphorylcholine [lyso-PC]", "values": [
      {"measurement": "concentrations inducing histopathological damage to intestinal membranes", "value": "0.01-1 mM"}
    ]}
  ]
}
